Source: patent US4722931A, “Calcium antagonist” (Laboratorios Delagrange, priority 1984, dated 1988)
Structures can show the parent of a compound that is named as a salt. Where two headings read alike, the source gives them in different places.

Tests used:
[1] = system: KCl depolarized rat aorta; assay: Inhibitory effects on rat aorta contractions induced by KCl (in vitro); format: cell-based, Wistar rats; settings: for activity relative to compound 7 (IC 50): same test, compared with compound 7
Text: Inhibitory effects on rat aorta contractions induced by KCl: […]

[2] = system: SHR rats; assay: Antihypertensive efficacy in SHR rats (systolic blood pressure, tail cuff); format: in vivo, spontaneously hypertensive rats (SHR); settings: for maximum decrease of blood pressure, mm Hg / inhibition in vivo at 8 mg/kg: n = 5; for inhibition in vivo at 8 mg/kg: Rattus norvegicus, po, Table 2, read-out: maximum decrease of blood pressure, %; for in vivo antihypertensive activity, in words: p.os
Procedure: The systolic blood pressure was measured on the tail of conscious, spontaneously hypertensive rats (SHR), by means of an inflatable rubber cuff and a Digital Pressure meter LE 5000 (Letica Instruments, Barcelone, Spain). Measurements were carried out before administration of the substance, as well as 30 minutes, 1 h, 2, 6, and 24 hours afterwards, respectively. The animals were kept in pre-warmed plastic cylinders during the measurements. The rats with a blood pressure lesser than 160 mm. Hg were discarded. Each compound was tested in 5 animals. Compounds of this invention, or nitrendipine which was used as positive control were given orally in the form of suspensions in 5% acacia gum.

[3] = KCl 80 mM depolarized rat aorta, Table 1, read-out: IC × 10^-8
[4] = rat aorta contractions induced by KCl 80 mM
[5] = rat aorta contractions induced by KCl 80 mM, read-out: IC 50

| SMILES | IC50 [1, 3] | maximum decrease of blood pressure, mm Hg ([2]; 8 mg./kg. p.os) | inhibition in vivo at 8 mg/kg ([2]; 8 mg./kg. p.os) | further results |
| --- | --- | --- | --- | --- |
| CCOC(=O)C1=C(C)NC(C)=C(C(=O)OC)C1c1cc(OC)c(OC)c(OC)c1 (stereo not drawn) [Compound 1, 1,4-dihydro-2,6-dimethyl-4-(3',4',5'-trimethoxyphenyl)-3,5-pyridinedicarboxylic acid, methyl ethyl ester] | > 100 nM | 9.8 mm Hg | 5% | in vitro activity, in words [1, 4]: little or no activity |
| CCOC(=O)C1=C(C)NC(C)=C(C(=O)OC)C1c1ccc(OC)c(OC)c1 (stereo not drawn) [Compound 2, 1,4-dihydro-2,6-dimethyl-4-(3',4'-dimethoxyphenyl)-3,5-pyridinedicarboxylic acid, methyl ethyl ester] | > 100 nM |  |  | in vitro activity, in words [1, 4]: little or no activity |
| CCOC(=O)C1=C(C)NC(C)=C(C(=O)OC)C1c1cc(OC)c(O)c(OC)c1 (stereo not drawn) [Compound 3, 1,4-dihydro-2,6-dimethyl-4-(3',5'-dimethoxy-4'-hydroxyphenyl)-3,5-pyridinedicarboxylic acid, methyl ethyl ester] | > 100 nM |  |  | in vitro activity, in words [1, 4]: little or no activity |
| CCOC(=O)C1=C(C)NC(C)=C(C(=O)OC)C1c1cccc(OC)c1OC (stereo not drawn) [Compound 4, 1,4-dihydro-2,6-dimethyl-4-(2',3'-dimethoxyphenyl)-3,5-pyridinedicarboxylic acid, ethyl methyl ester] | > 100 nM |  |  |  |
| CCOC(=O)C1=C(C)NC(C)=C(C(=O)OC)C1c1cc(OC)cc(OC)c1 (stereo not drawn) [Compound 5, 1,4-dihydro-2,6-dimethyl-4-(3',5'-dimethoxyphenyl)-3,5-pyridinedicarboxylic acid, ethyl methyl ester] | 92 nM |  |  |  |
| CCOC(=O)C1=C(C)NC(C)=C(C(=O)OC)C1c1ccccc1OCOC (stereo not drawn) [Compound 6, 1,4-dihydro-2,6-dimethyl-4-(2'-methoxymethoxy-phenyl)-3,5-pyridinedicarboxylic acid, ethyl methyl ester] | 12 nM | 34 mm Hg | 15.2% | in vivo antihypertensive activity, in words ([2]; SHR rats): also active in vivo |
| CCOC(=O)C1=C(C)NC(C)=C(C(=O)OC)C1c1cccc2c1OCO2 (stereo not drawn) [Compound 7, 1,4-dihydro-2,6-dimethyl-4-(2',3'-methylenedioxyphenyl)-3,5-pyridinedicarboxylic acid, ethyl methyl ester] | 3.1 nM | 65 mm Hg | 33% | in vitro activity, in words [1, 4]: the most active within the series of methyl ethyl ester derivatives; in vitro activity, in words ([1]; rat aorta contractions induced by KCl 80 mM, listed as IQB-837 V): very active; IC50 [1, 5]: 3.5 nM; decreasing blood pressure by ([2]; 8 mg./kg. p.os, SHR rats): 30%; in vivo antihypertensive activity, in words ([2]; SHR rats): as active as nitrendipine; in vivo antihypertensive activity, in words ([2]; SHR rats, listed as IQB-837 V): very active |
| CCOC(=O)C1=C(C)NC(C)=C(C(=O)OC)C1c1cccc2c1OCCO2 (stereo not drawn) [Compound 8, 1,4-dihydro-2,6-dimethyl-4-(2',3'-ethylenedioxyphenyl)-3,5-pyridinedicarboxylic acid, methyl ethyl ester] | 45 nM | 12 mm Hg | 7.2% | in vitro activity, in words [1, 4]: rather active in vitro; in vitro activity, in words ([1]; rat aorta contractions induced by KCl 80 mM, listed as IQB-838 V): very active; in vivo antihypertensive activity, in words ([2]; SHR rats): a little antihypertensive effect; in vivo antihypertensive activity, in words ([2]; SHR rats, listed as IQB-838 V): very active |
| COC(=O)C1=C(C)NC(C)=C(C(=O)OC)C1c1cccc2c1OCO2 [Compound 9, 1,4-dihydro-2,6-dimethyl-4-(2',3'-methylenedioxyphenyl)-3,5-pyridinedicarboxylic acid, dimethyl ester] | 83 nM |  |  |  |
| COC(=O)C1=C(C)NC(C)=C(C(=O)OCC(C)C)C1c1cccc2c1OCO2 (stereo not drawn) [Compound 10, 1,4-dihydro-2,6-dimethyl-4-(2',3'-methylenedioxyphenyl)-3,5-pyridinedicarboxylic acid, methyl isobutyl ester] | 12 nM | 48 mm Hg | 23.5% | in vivo antihypertensive activity, in words ([2]; SHR rats): also active in vivo |
| COCCOC(=O)C1=C(C)NC(C)=C(C(=O)OC(C)C)C1c1cccc2c1OCO2 (stereo not drawn) [Compound 11, 1,4-dihydro-2,6-dimethyl-4-(2',3'-methylenedioxyphenyl)-3,5-pyridinedicarboxylic acid, isopropyl methoxyethyl ester] | 91 nM |  |  |  |
| CC1=C(C(=O)OC(C)C)C(c2cccc3c2OCO3)C(C(=O)OC(C)C)=C(C)N1 [Compound 12, 1,4-dihydro-2,6-dimethyl-4-(2',3'-methylenedioxyphenyl)-3,5-pyridinedicarboxylic acid, diisopropyl ester] | > 100 nM |  |  |  |
| COC(=O)C1=C(C)NC(C)=C(C(=O)OC(C)C)C1c1cccc2c1OCO2 (stereo not drawn) [Compound 13, 1,4-dihydro-2,6-dimethyl-4-(2',3'-methylenedioxyphenyl)-3,5-pyridinedicarboxylic acid, methyl isopropyl ester] | 34 nM | 10 mm Hg | 5.2% |  |
| CCOC(=O)C1=C(C)NC(C)=C(C(=O)OCC)C1c1cccc2c1OCO2 [Compound 14, 1,4-dihydro-2,6-dimethyl-4-(2',3'-methylenedioxyphenyl)-3,5-pyridinedicarboxylic acid, diethyl ester] | > 100 nM |  |  |  |
| CCOC(=O)C1=C(C)NC(C)=C(C(=O)OC(C)C)C1c1cccc2c1OCO2 (stereo not drawn) [Compound 15, 1,4-dihydro-2,6-dimethyl-4-(2',3'-methylenedioxyphenyl)-3,5-pyridinedicarboxylic acid, ethyl isopropyl ester] | 2.1 nM | 62 mm Hg | 32.4% | IC50 [1, 5]: 2.1 nM; activity relative to compound 7 (IC 50) [1]: as active as compound 7; in vivo antihypertensive activity, in words ([2]; SHR rats): also active in vivo |
| COCCOC(=O)C1=C(C)NC(C)=C(C(=O)OCCOC)C1c1cccc2c1OCO2 [Compound 16, 1,4-dihydro-2,6-dimethyl-4-(2',3'-methylenedioxyphenyl)-3,5-pyridinedicarboxylic acid, dimethoxyethyl ester] | > 100 nM |  |  |  |
| COC(=O)C1=C(C)NC(C)=C(C(=O)OCc2ccccn2)C1c1cccc2c1OCO2 (stereo not drawn) [Compound 17, 1,4-dihydro-2,6-dimethyl-4-(2',3'-methylenedioxyphenyl)-3,5-pyridinedicarboxylic acid, methyl, 2-pyridylmethyl ester, hydrochloride] | > 100 nM |  |  |  |
| COC(=O)C1=C(C)NC(C)=C(C(=O)OC)C1c1ccccc1[N+](=O)[O-] [Nifedipine, nifedipine, reference compound] | 7.1 nM |  |  | IC50 [1, 5]: 7.5 nM; activity relative to compound 7 (IC 50) [1]: about two times less active than compound 7 |
| CCOC(=O)C1=C(C)NC(C)=C(C(=O)OC)C1c1cccc([N+](=O)[O-])c1 (stereo not drawn) [nitrendipine, reference compound] |  | 54 mm Hg | 26.3% |  |
